Measurements from patent US20070105721A1, “Vinylogous 4-Hpyrones and their use in promoting plant growth” (priority 2003, published 2007).

How the values were obtained:
[1] = test system: Acetosa vesicaria (ruby dock); assay: Weed germination enhancement; assay type: in vivo; settings: compound 1a at 100 ppb; also: tested at 0.1 ppm
Protocol: (§1) For each species, four replicates of 25 seeds were placed on Petri dishes lined with seed germination paper. The Petri dishes were moistened with de-ionised water (control) or 100 ppb compound 1a. All species were incubated in constant darkness at 12/12 hr alternating temperatures of 7/18° C., 13/26° C. or 18/33° C. Germination (radicle emergence) was recorded every 2-3 days until germination had ceased.

[2] = test system: Brassica tournefortii (wild turnip); assay: Weed germination enhancement; assay type: in vivo; settings: compound 1a at 100 ppb; also: tested at 0.1 ppm
Protocol: as §1

Avena fatua (wild oats) = assay: Weed germination enhancement; assay type: in vivo; settings: compound 1a at 100 ppb; mean ± standard error; also: tested at 0.1 ppm
Protocol: as §1

Caulanthus heterophyllus = assay: Germination on moist filter paper in petri dishes; assay type: in vivo; settings: SW 1/10 dilution, compound 1a 10 ppb
[3] = test system: intact or de-hulled Microlaena stipoides seeds; assay: Compound 1a as a replacement for de-hulling of grass species; assay type: in vivo; settings: 100 ppb compound 1a
Protocol: Intact or de-hulled seeds were employed for this experiment. Seeds were de-hulled manually by carefully extracting the seeds from the surrounding palea and lemma. Three replicates of 25 intact or de-hulled seeds were placed on Petri dishes lined with seed germination paper. The Petri dishes were moistened with de-ionised water (control) or 100 ppb compound 1a. All species were incubated in constant darkness at 18° C. Germination (radicle emergence) was recorded every 2-3 days until germination had ceased.

Conostylis candicans = assay: Soil-based germination trial; assay type: in vivo; settings: SW 1/10 dilution; compound 1a 10 ppb; in soil; also: tested at 0.01 ppm
Protocol: (§2) For the soil-based germination trials, four replicates of 25 seeds were soaked in the test solution (water (control) or compound 1 analogues at 10 ppb) for 24 hours, dried in a laminar flow cabinet and sowed in a germination mix. The soil-sown seeds were incubated in the dark at 20±1° C. and were scored on a weekly basis.

Syncarpha vestita = assay: Soil-based germination trial; assay type: in vivo; settings: SW 1/10 dilution; compound 1a 10 ppb; in soil; also: tested at 0.01 ppm
Protocol: as §2

Rhodocoma arida = assay: Soil-based germination trial; assay type: in vivo; settings: SW 1/10 dilution; compound 1a 10 ppb; in soil; 1a statistically significant with p < 0.08; also: tested at 0.01 ppm
Protocol: as §2

Ozothamnus cordifolium = assay: Soil-based germination trial; assay type: in vivo; settings: SW 1/10 dilution; compound 1a 10 ppb; in soil; also: tested at 0.01 ppm
Protocol: as §2

Scaevola thesioides = assay: Soil-based germination trial; assay type: in vivo; settings: SW 1/10 dilution; compound 1a 10 ppb; in soil; also: tested at 0.01 ppm
Protocol: as §2

Grevillea polybotrya = assay: Soil-based germination trial; assay type: in vivo; settings: SW 1/10 dilution; compound 1a 10 ppb; in soil; also: tested at 0.01 ppm
Protocol: as §2

Passerina vulgaris = assay: Soil-based germination trial; assay type: in vivo; settings: SW 1/10 dilution; compound 1a 10 ppb; in soil; also: tested at 0.01 ppm
Protocol: as §2

Brunonia australis = assay: Soil-based germination trial; assay type: in vivo; settings: SW 1/10 dilution; compound 1a 10 ppb; in soil; mean (SEM); also: tested at 0.01 ppm
Protocol: as §2

Verticordia densiflora = assay: Soil-based germination trial; assay type: in vivo; settings: SW 1/10 dilution; compound 1a 10 ppb; in soil; also: tested at 0.01 ppm
Protocol: as §2

Phyllanthus calycinus = assay: Seed priming; assay type: in vivo; settings: 24 hr priming in 100 ppb compound 1a, re-drying and sowing; also: tested at 0.1 ppm
Protocol: (§3) For testing on Australian species, three replicates of 25 seeds were soaked in one of de-ionised DI water or 100 ppb compound 1a for 24 hr at 23° C. The seeds were re-dried at 23° C. for 24 hr and incubated on Petri dishes containing 0.7% (w/v) water agar in constant darkness at 18° C. Germination (radicle emergence) was recorded every 2-3 days until germination had ceased.

Borya sphaerocephala = assay: Seed priming; assay type: in vivo; settings: 24 hr priming in 100 ppb compound 1a, re-drying and sowing; also: tested at 0.1 ppm
Protocol: as §3

Opercularia vaginate = assay: Seed priming; assay type: in vivo; settings: 24 hr priming in 100 ppb compound 1a, re-drying and sowing; also: tested at 0.1 ppm
Protocol: as §3

[4] = test system: somatic embryos induced from shoot and coleoptile explants of Baloskion tetraphyllum; assay: Reactivity of compound 1a with somatic tissue; assay type: cell-based; settings: for Frequency of shoot formation / Number of shoots: after culturing for 20 days, compound 1a at 10 ppb; as to Frequency of shoot formation: tested at 0.01 ppm; as to Number of shoots: tested at 0.01 ppm
Protocol: Seeds were cultured on PGR-free 1/2 MS medium for 4 weeks in darkness, then 3 mm coleoptile sections were removed under aseptic conditions and explanted to culture media supplemented with […] 2,4-dichlorophenoxyacetic acid and compound 1a (0, 1.0, 10, 100 ppb, respectively), with incubation in darkness at 22-25° C. Each plate was inoculated with 10 coleoptile sections and every treatment was replicated by 6 plates. […] Shoots of Baloskion tetraphyllum were cultured on 1/2 MS basal medium supplemented with […] in 16 hr light culture (PPFD of 30 μmolm^−2s^−1). After two months, whole shoots were trimmed of upper leaf and basal roots to 4 mm in length, then explanted to culture media with 1 mM 2,4-dichlorophenoxyacetic acid and supplemented with different concentrations of compound 1a (0, 1.0, 10, 100 ppb, respectively) and incubated in darkness at 22-25° C. Each plate was inoculated with 10 trimmed shoots and every treatment replicated with 4 plates. Somatic embryogenesis and plant regeneration was investigated at various intervals.

Camissonia califomica = assay: Germination on moist filter paper in petri dishes; assay type: in vivo; settings: SW 1/10 dilution, compound 1a 10 ppb
test species = assay: Germination tests in a range of test species; assay type: in vivo; settings: each of the test species
Protocol: Grand Rapids Lettuce seeds (Waltham strain) were obtained from R.B. Dessert Seed Co. and were frozen in sachets until use. For testing of aqueous samples, 2.5 mL of test solution was applied to three replicates of 40-50 seeds in Petri dishes (90 mm) lined with two layers of Whatman No. 1 filter paper (7 cm). Millipore filtered water (MP water) was used as a control for each experiment and dilutions of each sample were used to ensure the optimum concentration range for activity. Fractions were reconstituted to their original concentration (before fractionation) and dilutions were made using MP water. Petri dishes were sealed with a layer of plastic wrap, and stored in a light proof container. All manipulations involving the seed were carried out in a dark room and germinants, based on the appearance of a radicle, were scored after 48 hours incubation.
Conostylis aculeata and Stylidium affine seeds were obtained from Nindethana seed service and stored before use. For testing of aqueous samples, three replicates of 20-30 sterilised seeds were added to UV sterilised petri dishes (90 mm), containing two Whatman No. 1 filter papers (7 cm) moistened with the filtered test solution (2.5 mL, 0.22 μm). […] The seeds were scored on a weekly basis with optimum germination achieved between 4-6 weeks.

Cc1c2ccocc-2oc1=O [Compound 1a, 3-Methyl-2H-furo[2,3-c]pyran-2-one]
germination percentage, Acetosa vesicaria (ruby dock) [1]: 30.0 ± 7.6 b % | germination percentage, Brassica tournefortii (wild turnip) [2]: 92.0 ± 2.8 b % | germination percentage, Avena fatua (wild oats) (Avena fatua (wild oats)): 38.0 ± 4.3 b % | Germination, Caulanthus heterophyllus (Caulanthus heterophyllus): 97.3 (±0.7) b % | Germination (%), Microlaena stipoides ([3]; De-hulled seeds): 100 ± 0.0 a % | Germination (%), Microlaena stipoides ([3]; Intact seeds): 78.3 ± 6.3 b % | Germination, Conostylis candicans (Conostylis candicans): 36.0 (±6.7) b % | Germination, Syncarpha vestita (Syncarpha vestita): 77.5 (±6.3) b % | Germination, Rhodocoma arida (Rhodocoma arida): *53.3 (±3.1) b % | Germination, Ozothamnus cordifolium (Ozothamnus cordifolium): 24.0 (±4.3) c % | Germination, Scaevola thesioides (Scaevola thesioides): 17.0 (±5.5) b % | Germination, Grevillea polybotrya (Grevillea polybotrya): 6.0 (±2.0) c % | Germination, Passerina vulgaris (Passerina vulgaris): 10.0 (±4.1) b % | Germination, Brunonia australis (Brunonia australis): 25.0 (±2.5) b % | Germination, Verticordia densiflora (Verticordia densiflora): 11.1 (±1.2) b % | Germination (%), Phyllanthus calycinus (Phyllanthus calycinus): 17.3 ± 1.3 b % | Germination (%), Borya sphaerocephala (Borya sphaerocephala): 13.3 ± 4.8 b % | Germination (%), Opercularia vaginate (Opercularia vaginate): 22.7 ± 7.4 b % | Frequency of shoot formation ([4]; Coleoptile explants): 37.0 | Number of shoots ([4]; Coleoptile explants): 4.5 | Frequency of shoot formation ([4]; Shoot explants): 58.6 | Number of shoots ([4]; Shoot explants): 7.8 | root formation and plantlet maturation ([4]; once somatic embryos are induced): significantly enhances | plantlet recovery and regeneration ([4]; somatic embryos transferred to hormone-free medium): significantly improved | effect on the induction phase of somatic embryogenesis ([4]; with 2,4-dichlorophenoxyacetic acid): no apparent effect | Germination, Camissonia califomica (Camissonia califomica): 85.3 (±4.8) b % | concentration for which germination promoting activity has been shown (test species): 100 ppt
